The source of these data is patent US8501166B2, “Pyrimidinyl indole compounds” (Hutchison Medipharma Limited, priority 2010, dated 2013).

For orientation: inhibition means the drop in the measured response relative to a control, in per cent.

Counter-ions that a name gives are not always drawn. Like-named read-outs stand apart in the source and are kept apart here.

In the assay the test system is BxPC-3 cells. In words: Cell viability test, combination study, BxPC-3. It counts as cell-based, human. The following applies: for inhibition at 2.5 µM / inhibition at 25 µM: Homo sapiens, BXPC-3, 72 h, read-out: Ave. Inhibition rate. The method, then: To evaluate biological activity of a compound in vitro, the cell viability test is applied, in which, IKKβ receptor plays an important role in cell survival and proliferation. Once the IKKβ pathway is blocked by inhibitors, a cell can go through apoptosis or death. The cell viability test provides information on cell survival after treatment with IKK inhibitors.
BxPC-3 cells (ATCC #CRL-1687; human pancreatic cancer cell line) are grown in Roswell Park Memorial Institute (RPMI) 1640 media (Gibco #A10491-01) supplemented with 10% fetal bovine serum (FBS) (Gibco #10099-141). Skov3-luc cells (ATCC, human ovarian carcinoma cell line) are grown in McCoy's 5a medium (Gibco#16600) supplemented with 10% FBS (Gibco#10099-141). For compound testing, BxPc-3 and Skov3-Luc cells are seeded at 2000 and 5000 cells/well respectively in 100 μL of corresponding media specified above for each cell line in 96-well plates 20 h prior to treatment. Cells are treated with a test compound at eight different concentrations in the presence of 0.5% DMSO for 72 h. Cell death in each well is determined by the addition of 20 μL of the One Solution Reagent (CELLTITER 96® AQueous One Solution Cell Proliferation Assay, Promega #G3580). After 2-4 h of incubation at 37° C., optical densities at 492 nm are measured with a microplate reader Inhibition of cell viability is determined by comparison to the control cells treated in the absence of a test compound.
For the combination study of the compound with other antitumor agents, BxPc-3 and Skov3-Luc cells are seeded at 2000 and 5000 cells/well respectively in 100 μL corresponding media specified above for each cell line in 96-well plates 20 h prior to the treatment. The cells are treated with the test compound at a number of concentrations for 30 minutes and then exposed to 5 ng/mL TNFα or 0.15-0.6 uM of VCR (vincristine sulfate) for an additional 72 hours. Cell death in each well is determined by the addition of 20 μL of the One Solution Reagent (CELLTITER 96® AQueous One Solution Cell Proliferation Assay, Promega #G3580). After 2-4 h of incubation at 37° C., optical densities at 492 nm are measured with a microplate reader Inhibition of cell viability is determined by comparison to the control cells treated in the absence of a test compound. For example, the results of the combination study with Example 1 are specially detailed in Table 2.

Turning to `O=C(NC1CC1)c1cccc2[nH]c(-c3nc(N[C@@H]4CCC[C@@H]4O)ncc3Cl)cc12` [Example 1, 2-{5-Chloro-2-[(1R,2S)-2-hydroxycyclopentylamino]pyrimidin-4-yl}-N-cyclopropyl-1H-indole-4-carboxamide hydrochloride], where the note is “Example 1 25 μM alone, 72 h, hydrochloride”, the “Ave. Inhibition rate” value is on record as 11.53%. The inhibition at 2.5 µM (Example 1 2.5 μM alone) was -16.5% and the inhibition at 2.5 µM (TNFα 5 ng/mL + Example 1 2.5 μM) was determined as 87.8%. Moreover, the inhibition at 25 µM by setting is: (Example 1 25 μM alone) 11.5%; (Vincristine 0.15 μM + Example 1 25 μM) 80.2%.
